ChEMBL document CHEMBL5042478, “Design, Synthesis, and Evaluation of VHL-Based EZH2 Degraders to Enhance Therapeutic Activity against Lymphoma” (J Med Chem, 2021)
Calls of active or inactive are those of the source. The calls are words filed in the database; no cut-off is given here.

How the values were obtained:
[1] = target: T1, von Hippel-Lindau disease tumor suppressor/Polycomb protein SUZ12 (Homo sapiens) (UniProt Q15022+P40337); assay: Protac activity at VHL/SUZ12 in human SUDHL2 cells assessed as reduction in SUZ12 level at 2 uM incubated for 24 hrs by Western blot analysis; assay type: cell-based
T1 sequence (P40337 whole entry, looked up): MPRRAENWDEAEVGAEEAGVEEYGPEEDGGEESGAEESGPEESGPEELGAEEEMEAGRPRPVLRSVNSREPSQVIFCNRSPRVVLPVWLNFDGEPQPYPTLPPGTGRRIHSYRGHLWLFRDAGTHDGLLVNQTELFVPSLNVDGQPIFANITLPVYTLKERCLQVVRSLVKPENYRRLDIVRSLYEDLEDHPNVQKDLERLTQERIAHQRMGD
T1 sequence (Q15022 whole entry, looked up): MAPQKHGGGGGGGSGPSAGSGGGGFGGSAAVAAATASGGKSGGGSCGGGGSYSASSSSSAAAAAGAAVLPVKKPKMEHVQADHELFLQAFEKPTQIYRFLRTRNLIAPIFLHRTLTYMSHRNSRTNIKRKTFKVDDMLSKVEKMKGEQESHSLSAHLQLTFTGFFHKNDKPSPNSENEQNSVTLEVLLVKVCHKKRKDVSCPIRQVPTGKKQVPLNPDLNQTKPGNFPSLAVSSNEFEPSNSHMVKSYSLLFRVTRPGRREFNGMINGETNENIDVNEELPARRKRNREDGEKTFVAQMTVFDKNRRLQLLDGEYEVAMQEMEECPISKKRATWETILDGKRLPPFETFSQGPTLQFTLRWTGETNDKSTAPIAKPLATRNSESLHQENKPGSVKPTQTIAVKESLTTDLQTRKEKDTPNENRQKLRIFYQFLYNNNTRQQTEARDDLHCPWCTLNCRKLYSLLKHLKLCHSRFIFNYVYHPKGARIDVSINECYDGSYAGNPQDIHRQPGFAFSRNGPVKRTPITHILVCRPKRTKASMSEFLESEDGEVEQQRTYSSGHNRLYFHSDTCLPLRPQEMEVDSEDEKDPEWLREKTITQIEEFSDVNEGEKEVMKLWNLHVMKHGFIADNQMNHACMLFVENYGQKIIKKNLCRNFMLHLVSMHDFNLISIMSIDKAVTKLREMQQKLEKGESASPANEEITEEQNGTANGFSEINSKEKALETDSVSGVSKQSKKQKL

[2] = target: von Hippel-Lindau disease tumor suppressor/Histone-lysine N-methyltransferase EZH1 (Homo sapiens) (UniProt Q92800+P40337); assay: Protac activity at VHL/EZH1 in human 22Rv1 cells assessed as EZH1 protein abundance at 1 to 6 uM after 24 hrs by Western blot analysis; assay type: cell-based; conditions: dose 1-6 µM
Chain of von Hippel-Lindau disease tumor suppressor/Histone-lysine N-methyltransferase EZH1 (Homo sapiens) (P40337 whole entry, looked up): as the sequence (P40337 whole entry, looked up) above
Chain of von Hippel-Lindau disease tumor suppressor/Histone-lysine N-methyltransferase EZH1 (Homo sapiens) (Q92800 whole entry, looked up): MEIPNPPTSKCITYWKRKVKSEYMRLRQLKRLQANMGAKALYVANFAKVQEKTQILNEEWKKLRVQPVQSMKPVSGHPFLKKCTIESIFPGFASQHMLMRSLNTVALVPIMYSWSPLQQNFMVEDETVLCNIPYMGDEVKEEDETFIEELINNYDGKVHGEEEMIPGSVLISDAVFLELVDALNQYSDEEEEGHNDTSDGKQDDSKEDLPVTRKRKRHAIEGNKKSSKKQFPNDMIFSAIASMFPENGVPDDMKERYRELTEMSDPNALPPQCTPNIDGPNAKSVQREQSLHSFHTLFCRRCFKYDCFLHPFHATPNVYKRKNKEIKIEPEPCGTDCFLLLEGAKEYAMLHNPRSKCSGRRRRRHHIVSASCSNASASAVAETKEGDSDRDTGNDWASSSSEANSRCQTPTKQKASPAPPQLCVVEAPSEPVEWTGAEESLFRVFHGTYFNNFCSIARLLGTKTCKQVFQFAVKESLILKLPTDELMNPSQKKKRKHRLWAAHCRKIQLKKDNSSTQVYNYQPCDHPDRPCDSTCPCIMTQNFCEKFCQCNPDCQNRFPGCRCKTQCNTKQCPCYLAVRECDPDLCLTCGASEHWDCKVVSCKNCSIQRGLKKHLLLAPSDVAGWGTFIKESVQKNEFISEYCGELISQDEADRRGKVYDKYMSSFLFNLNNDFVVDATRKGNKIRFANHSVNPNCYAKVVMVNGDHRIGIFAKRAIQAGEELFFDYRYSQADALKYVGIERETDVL

[3] = target: T2, von Hippel-Lindau disease tumor suppressor/Histone-lysine N-methyltransferase EZH2 (Homo sapiens) (UniProt Q15910+P40337); assay: Protac activity at VHL/EZH2 in human 22Rv1 cells assessed as EZH2 degradation at 2 uM after 2 to 4 hrs by Western blot analysis; assay type: cell-based; conditions: time 2-4 hrs
T2 sequence (P40337 whole entry, looked up): as the sequence (P40337 whole entry, looked up) above
T2 sequence (Q15910 whole entry, looked up): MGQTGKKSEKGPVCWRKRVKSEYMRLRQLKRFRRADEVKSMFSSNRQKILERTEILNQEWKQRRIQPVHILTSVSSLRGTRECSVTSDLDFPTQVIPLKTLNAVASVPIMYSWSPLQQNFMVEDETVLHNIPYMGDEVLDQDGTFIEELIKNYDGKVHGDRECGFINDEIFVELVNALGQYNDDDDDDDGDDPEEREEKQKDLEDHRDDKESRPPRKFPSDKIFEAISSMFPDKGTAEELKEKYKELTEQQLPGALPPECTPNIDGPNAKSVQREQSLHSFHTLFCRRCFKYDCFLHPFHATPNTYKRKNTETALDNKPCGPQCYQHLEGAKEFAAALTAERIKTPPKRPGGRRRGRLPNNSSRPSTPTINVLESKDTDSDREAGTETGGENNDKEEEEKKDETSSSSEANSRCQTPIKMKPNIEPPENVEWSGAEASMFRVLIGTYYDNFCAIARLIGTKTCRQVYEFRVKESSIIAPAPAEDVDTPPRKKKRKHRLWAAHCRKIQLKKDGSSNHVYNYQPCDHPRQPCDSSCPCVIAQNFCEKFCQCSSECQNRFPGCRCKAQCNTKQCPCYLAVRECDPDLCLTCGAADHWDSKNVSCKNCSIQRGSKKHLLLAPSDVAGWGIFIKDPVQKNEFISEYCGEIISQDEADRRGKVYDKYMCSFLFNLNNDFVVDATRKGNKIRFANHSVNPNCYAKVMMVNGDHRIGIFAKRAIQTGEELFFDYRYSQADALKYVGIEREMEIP

[4] = target: T2, von Hippel-Lindau disease tumor suppressor/Histone-lysine N-methyltransferase EZH2 (Homo sapiens); assay: Protac activity at VHL/EZH2 in human 22Rv1 cells assessed as reduction in EZH2 level at 2 uM preincubated with VH032 for 2 hrs followed by compound addition and measured after 24 hrs by Western blot analysis; assay type: cell-based; conditions: time 26.0 hrs
[5] = target: T2, von Hippel-Lindau disease tumor suppressor/Histone-lysine N-methyltransferase EZH2 (Homo sapiens); assay: Protac activity at VHL/EZH2 in VHL knockdown human 22Rv1 cells assessed as reduction in EZH2 level at 2 uM for 24 hrs by Western blot analysis; assay type: cell-based
SU-DHL-6 [6] = assay: Induction of apoptosis in human SU-DHL-6 cells assessed as increase in cleaved capase-3 level at 1 to 5 uM incubated for 48 hrs by Western blot analysis; assay type: functional, cell-based; conditions: dose 1-5 µM
[7] = target: T2, von Hippel-Lindau disease tumor suppressor/Histone-lysine N-methyltransferase EZH2 (Homo sapiens); assay: Protac activity at VHL/EZH2 in human 22Rv1 cells assessed as maximum degradation efficacy at 2 uM by Western blot analysis relative to control; assay type: cell-based
[8] = target: Histone-lysine N-methyltransferase EZH2 (Homo sapiens) (UniProt Q15910); assay: Induction of EZH2 degradation in human SUDHL2 cells at 0.1 to 5 uM after 24 hrs by Western blot analysis; assay type: cell-based; conditions: dose 0.1-5 µM
Chain of Histone-lysine N-methyltransferase EZH2 (Homo sapiens) (Q15910 whole entry, looked up): as above

SU-DHL-2 = assay: Antiproliferative activity against human SUDHL2 cells assessed as reduction in cell viability at 0.01 to 10 uM measured after 5 days by MTS assay; assay type: functional, cell-based; conditions: dose 0.01-10 µM, time 5.0 day
SU-DHL-6 [9] = assay: Antiproliferative activity against human SU-DHL-6 cells assessed as reduction in cell viability at 0.01 to 10 uM measured after 5 days by MTS assay; assay type: functional, cell-based; conditions: dose 0.01-10 µM, time 5.0 day
[10] = target: T2, von Hippel-Lindau disease tumor suppressor/Histone-lysine N-methyltransferase EZH2 (Homo sapiens); assay: Protac activity at VHL/EZH2 in human 22Rv1 cells assessed as reduction in H3K27me3 level after 24 hrs by Western blot analysis; assay type: cell-based; conditions: dose 1-6 µM
[11] = target: T3, von Hippel-Lindau disease tumor suppressor/Polycomb protein EED (Homo sapiens) (UniProt O75530+P40337); assay: Protac activity at VHL/EED in human SUDHL2 cells assessed as reduction in EED level at 2 uM incubated for 24 hrs by Western blot analysis; assay type: cell-based
T3 sequence (O75530 2-441 limits assumed): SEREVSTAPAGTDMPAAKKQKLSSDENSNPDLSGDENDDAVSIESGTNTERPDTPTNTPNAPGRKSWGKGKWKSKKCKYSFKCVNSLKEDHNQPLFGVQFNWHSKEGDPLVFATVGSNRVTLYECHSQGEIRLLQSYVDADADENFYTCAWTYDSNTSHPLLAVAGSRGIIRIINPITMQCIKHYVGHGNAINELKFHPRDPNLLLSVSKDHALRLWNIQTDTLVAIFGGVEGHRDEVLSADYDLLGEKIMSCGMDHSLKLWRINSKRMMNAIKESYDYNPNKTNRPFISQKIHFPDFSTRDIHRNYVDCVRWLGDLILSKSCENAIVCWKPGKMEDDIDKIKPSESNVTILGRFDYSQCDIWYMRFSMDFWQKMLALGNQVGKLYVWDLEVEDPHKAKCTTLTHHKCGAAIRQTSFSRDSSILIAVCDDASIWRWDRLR
T3 sequence (P40337 whole entry partner): as the sequence (P40337 whole entry, looked up) above

SUD4 = assay: Antiproliferative activity against human SU-DHL-4 cells assessed as reduction in cell viability at 0.01 to 10 uM measured after 5 days by MTS assay; assay type: functional, cell-based; conditions: dose 0.01-10 µM, time 5.0 day
SU-DHL-6 [12] = assay: Induction of cell cycle arrest in human SU-DHL-6 cells assessed as accumulation of cells at sub G1 phase after 24 hrs by flow cytometry; assay type: functional, cell-based; conditions: dose 1-5 µM
[13] = target: T2, von Hippel-Lindau disease tumor suppressor/Histone-lysine N-methyltransferase EZH2 (Homo sapiens); assay: Protac activity at VHL/EZH2 in human 22Rv1 cells assessed as EZH2 protein abundance after 24 hrs by Western blot analysis; assay type: cell-based; conditions: dose 1-6 µM
[14] = target: T2, von Hippel-Lindau disease tumor suppressor/Histone-lysine N-methyltransferase EZH2 (Homo sapiens); assay: Protac activity at VHL/EZH2 in human 22Rv1 cells assessed as increase in EZH2 ubiquitination at 2 uM for 12 hrs by immunoprecipitation based Western blot analysis; assay type: cell-based
[15] = target: T2, von Hippel-Lindau disease tumor suppressor/Histone-lysine N-methyltransferase EZH2 (Homo sapiens); assay: Protac activity at VHL/EZH2 in human 22Rv1 cells assessed as reduction in EZH2 level at 1 uM incubated for 48 hrs by Western blot analysis; assay type: cell-based
[16] = target: T1, von Hippel-Lindau disease tumor suppressor/Polycomb protein SUZ12 (Homo sapiens); assay: Protac activity at VHL/SUZ12 in human 22Rv1 cells assessed as reduction in SUZ12 level at 2 uM incubated for 24 hrs by Western blot analysis; assay type: cell-based
[17] = target: T2, von Hippel-Lindau disease tumor suppressor/Histone-lysine N-methyltransferase EZH2 (Homo sapiens); assay: Protac activity at VHL/EZH2 in human 22Rv1 cells assessed as reduction in H3K27me3 level at 1 uM incubated for 48 hrs by Western blot analysis; assay type: cell-based
SU-DHL-6 [18] = assay: Induction of cell cycle arrest in human SU-DHL-6 cells after 24 hrs by flow cytometry; assay type: functional, cell-based; conditions: dose 1-5 µM
[19] = target: T3, von Hippel-Lindau disease tumor suppressor/Polycomb protein EED (Homo sapiens); assay: Protac activity at VHL/EED in human 22Rv1 cells assessed as reduction in EED level at 2 uM incubated for 24 hrs by Western blot analysis; assay type: cell-based
SU-DHL-6 [20] = assay: Induction of apoptosis in human SU-DHL-6 cells at 1 to 5 uM incubated for 48 hrs by Annexin V/propidium iodide staining based flow cytometry; assay type: functional, cell-based; conditions: dose 1-5 µM
SU-DHL-6 [21] = assay: Induction of apoptosis in human SU-DHL-6 cells assessed as increase in cleaved PARP level at 1 to 5 uM incubated for 48 hrs by Western blot analysis; assay type: functional, cell-based; conditions: dose 1-5 µM
[22] = target: T4, Protein cereblon/Histone-lysine N-methyltransferase EZH2 (Homo sapiens) (UniProt Q15910+Q96SW2); assay: Protac activity at CRBN E3 ligase/EZH2 in human 22Rv1 cells assessed as degradation of EZH2 at 1 uM incubated for 48 hrs by Western blot analysis; assay type: cell-based
T4 sequence (Q15910 whole entry, looked up): as the sequence (Q15910 whole entry, looked up) above
T4 sequence (Q96SW2 whole entry, looked up): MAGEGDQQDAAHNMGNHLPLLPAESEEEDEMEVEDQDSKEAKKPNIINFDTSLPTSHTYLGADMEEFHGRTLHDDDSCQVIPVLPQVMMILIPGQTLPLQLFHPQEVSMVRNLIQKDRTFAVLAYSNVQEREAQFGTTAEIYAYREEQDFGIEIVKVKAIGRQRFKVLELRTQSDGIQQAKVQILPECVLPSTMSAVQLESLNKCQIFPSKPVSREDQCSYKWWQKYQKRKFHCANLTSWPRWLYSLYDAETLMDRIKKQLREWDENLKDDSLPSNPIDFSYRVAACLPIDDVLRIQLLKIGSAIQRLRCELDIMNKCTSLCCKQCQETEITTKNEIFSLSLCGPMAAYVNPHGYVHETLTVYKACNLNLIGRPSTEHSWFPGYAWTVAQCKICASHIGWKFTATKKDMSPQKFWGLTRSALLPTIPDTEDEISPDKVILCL

[23] = target: T4, Protein cereblon/Histone-lysine N-methyltransferase EZH2 (Homo sapiens); assay: Protac activity at CRBN E3 ligase/EZH2 in human 22Rv1 cells assessed as inhibition of H3K27me3 at 1 uM incubated for 48 hrs by Western blot analysis; assay type: cell-based
[24] = target: T4, Protein cereblon/Histone-lysine N-methyltransferase EZH2 (Homo sapiens); assay: Protac activity at CRBN E3 ligase/EZH2 in human 22Rv1 cells assessed as degradation of EZH2 at 3 uM incubated for 48 hrs by Western blot analysis; assay type: cell-based
[25] = target: T4, Protein cereblon/Histone-lysine N-methyltransferase EZH2 (Homo sapiens); assay: Protac activity at CRBN E3 ligase/EZH2 in human 22Rv1 cells assessed as inhibition of H3K27me3 at 3 uM incubated for 48 hrs by Western blot analysis; assay type: cell-based
[26] = target: T4, Protein cereblon/Histone-lysine N-methyltransferase EZH2 (Homo sapiens); assay: Protac activity at CRBN E3 ligase/EZH2 in human 22Rv1 cells assessed as inhibition of H3K27me3 at 0.3 uM incubated for 48 hrs by Western blot analysis; assay type: cell-based
[27] = target: T4, Protein cereblon/Histone-lysine N-methyltransferase EZH2 (Homo sapiens); assay: Protac activity at CRBN E3 ligase/EZH2 in human 22Rv1 cells assessed as degradation of EZH2 at 0.3 uM incubated for 48 hrs by Western blot analysis; assay type: cell-based

## CCN(c1cc(-c2ccc(OCCOCCOCC(=O)N[C@H](C(=O)N3C[C@H](O)C[C@H]3C(=O)NCc3ccc(-c4scnc4C)cc3)C(C)(C)C)cc2)cc(C(=O)NCc2c(C)cc(C)[nH]c2=O)c1C)C1CCOCC1
[1]
  Activity: Active
[2]
  Activity: inactive
[3]
  Activity: Active
[4]
  Activity: inactive
[5]
  Activity: inactive
SU-DHL-6 [6]
  Activity: Active
[7]
  Emax: 80%
[8]
  Activity: Active
SU-DHL-2
  Activity: Active
SU-DHL-6 [9]
  Activity: Active
[10]
  Activity: Dose-Dependent Effect
[11]
  Activity: Active
SUD4
  Activity: Active
SU-DHL-6 [12]
  Activity: Dose-Dependent Effect
[13]
  Activity: Dose-Dependent Effect
[14]
  Activity: Active
[15]
  Activity: Active
[16]
  Activity: Active
[17]
  Activity: Active
SU-DHL-6 [18]
  Activity: Dose-Dependent Effect
[19]
  Activity: Active
SU-DHL-6 [20]
  Activity: Dose-Dependent Effect
SU-DHL-6 [21]
  Activity: Active

## CCN(c1cc(-c2ccc(C(=O)NCCCCCCNC(=O)COc3cccc4c3C(=O)N(C3CCC(=O)NC3=O)C4=O)cc2)cc(C(=O)NCc2c(C)cc(C)[nH]c2=O)c1C)C1CCOCC1 (centres undefined)
[22]
  Activity: inactive
[23]
  Activity: Active
[24]
  Activity: inactive
[25]
  Activity: Active
[26]
  Activity: Active
[27]
  Activity: inactive

## CCN(c1cc(-c2ccc(C(=O)NCCCCNc3cccc4c3C(=O)N(C3CCC(=O)NC3=O)C4=O)cc2)cc(C(=O)NCc2c(C)cc(C)[nH]c2=O)c1C)C1CCOCC1 (centres undefined)
[22]
  Activity: inactive
[23]
  Activity: Active
[24]
  Activity: inactive
[25]
  Activity: Active
[26]
  Activity: Active
[27]
  Activity: inactive

## CCN(c1cc(-c2ccc(C(=O)NCCOCCOCCOCCOCC(=O)N[C@H](C(=O)N3C[C@H](O)C[C@H]3C(=O)NCc3ccc(-c4scnc4C)cc3)C(C)(C)C)cc2)cc(C(=O)NCc2c(C)cc(C)[nH]c2=O)c1C)C1CCOCC1
[15]
  Activity: inactive
[17]
  Activity: inactive

## CCN(c1cc(-c2ccc(C(=O)NCCCCCCCCNC(=O)COc3cccc4c3C(=O)N(C3CCC(=O)NC3=O)C4=O)cc2)cc(C(=O)NCc2c(C)cc(C)[nH]c2=O)c1C)C1CCOCC1 (centres undefined)
[22]
  Activity: inactive
[23]
  Activity: inactive
[24]
  Activity: inactive
[25]
  Activity: Active
[26]
  Activity: inactive
[27]
  Activity: inactive

## CCN(c1cc(-c2ccc(C(=O)NCCOCCNc3cccc4c3C(=O)N(C3CCC(=O)NC3=O)C4=O)cc2)cc(C(=O)NCc2c(C)cc(C)[nH]c2=O)c1C)C1CCOCC1 (centres undefined)
[22]
  Activity: inactive
[23]
  Activity: Active
[24]
  Activity: inactive
[25]
  Activity: Active
[26]
  Activity: Active
[27]
  Activity: inactive
